Among the data in PubChem BioAssay AID463136 (University of Pittsburgh Molecular Library Screening Center, 2010) are inhibition and IC50 values, retold here.

Records with an inconclusive call do not appear. Calls of active or inactive are those of the source. No rule for the calls is given here.

Assay [1] in a line: blockers of dynein-driven microtubule transport – imaging, high-content imaging, dose response (AID 463136).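 Also: mouse mammary adenocarcinoma 3617.4 cells expressing GFP-tagged rat glucocorticoid receptor.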 The following applies: HCS imaging, dynein-mediated cargo transport inhibition; inhibition at max concentration; at 50 µM; stronger effect = higher value.
Assay [2] has as its system HCS imaging, dynein-mediated cargo transport inhibition. The assay is described as above.

Regarding `Cc1ccccc1NC(=O)COC(=O)c1ccc(S(C)(=O)=O)c([N+](=O)[O-])c1`, the inhibition in assay [1] worked out at 81.2%. The IC50 in assay [2] was 31.8 µM.

Take `Cn1cc(C(=O)CCl)c2ccccc21`: the inhibition in assay [1] was 75%. Moreover, in assay [2], the IC50 is 22.5 µM.

For `Cc1cccc(N2C(=O)NC(=O)/C(=C\C=C\c3ccco3)C2=O)c1`, in assay [1], the inhibition amounted to 89.4%. The 50% inhibitory concentration (IC50) in assay [2] is 33.4 µM.

On to `CCOC(=O)/C(=C\c1cccnc1)C(=O)c1cc(C(C)=O)c(Nc2ccccc2)s1`, for which, in assay [1], the inhibition stood at 80.4%. Besides, the IC50 in assay [2] was 9.84 µM.

For the compound `Cc1ccc(-c2cn3nc(-c4ccccc4)c(-c4ccccc4)nc3n2)cc1`, the inhibition in assay [1] was 93.2%. In addition, in assay [2], the IC50 is 40.2 µM.

In the case of `O=C(CCl)N1N=C(c2cccs2)CC1c1ccco1` (stereo not given), the inhibition in assay [1] was determined as 47.6%. In assay [2], the IC50 is > 50 µM (inactive).

As to `CSc1nnc(C)c(/C=C/Nc2ccc(C)cc2)n1`, the inhibition in assay [1] turned out to be 109%. The 50% inhibitory concentration (IC50) in assay [2] was 31 µM.

Consider `O=C1C(Cl)=C(Nc2ccc3cn[nH]c3c2)C(=O)c2ccccc21`, for which the inhibition in assay [1] turned out to be 66.6%. The 50% inhibitory concentration (IC50) in assay [2] is 18.2 µM.

On to `CC(C)(C)C(=O)/C(=C/c1ccncc1)n1cncn1`, for which the inhibition in assay [1] was determined as 82.3%. For the same compound, in assay [2], the IC50 is 8.77 µM.

For `Cc1cc(C(=O)CCl)c(C)n1-c1ccon1`, the inhibition in assay [1] came out at 61.3%. For the same compound, the IC50 in assay [2] was 11.8 µM.

For `O=C1/C(=C/c2ccccc2[N+](=O)[O-])COc2ccccc21`, in assay [1], the inhibition stood at 39.6%. The IC50 in assay [2] is > 50 µM (inactive).

`O=[N+]([O-])c1ccc(N/N=C/c2c[nH]c3ccccc23)cc1`: in assay [1], the inhibition was 118%. Moreover, the concentration for half-maximal inhibition (IC50) in assay [2] was 21.7 µM.

With `O=[N+]([O-])c1ccc(N/N=C/c2ccc[nH]2)cc1`, in assay [1], the inhibition is 148%. In addition, the concentration for half-maximal inhibition (IC50) in assay [2] is 18 µM.

Consider `Cc1ccc(N2C(=O)NC(=O)/C(=C\C=C\c3ccco3)C2=O)cc1C`, for which the inhibition in assay [1] amounted to 83.1%. Besides, in assay [2], the IC50 was 32.4 µM.

As for `O=C(CCl)Nc1cccc(Oc2ccccc2)c1`, in assay [1], the inhibition turned out to be 56.5%. For the same compound, in assay [2], the half-maximal inhibitory concentration (IC50) is 38.8 µM.

Turning to `CNC(=O)c1nnsc1S(=O)c1ccc(Cl)cc1` (stereo not given), the inhibition in assay [1] is 74.6%. Besides, the IC50 in assay [2] was 7.18 µM.

Regarding `N#CC(C#N)=C1C=C2C=C(N3CCCCC3)CCC2CC1` (stereo not given), the inhibition in assay [1] is 99.5%. Moreover, the IC50 in assay [2] is 35.8 µM.

`CC[n+]1c(/C=C2\Sc3ccccc3N2C)ccc2cccc(C)c21`: the inhibition in assay [1] stood at 28.3%. Also, the IC50 in assay [2] is 0.765 µM.

In the case of `CCCCc1cc(O)c(CCCC)c(O)c1`, the inhibition in assay [1] amounted to 76.8%. Moreover, the IC50 in assay [2] was 2.31 µM.

In the case of `O=c1cc(-c2c(F)c(F)c(F)c(F)c2F)oc2c(F)c(F)c(F)c(F)c12`, the inhibition in assay [1] was 92%. Further, the half-maximal inhibitory concentration (IC50) in assay [2] is 27.7 µM.

As to `Cc1ccc(N2C(=N)/C(=C3/Nc4ccccc4S3)C(c3ccccc3)C2=O)cc1` (stereo not given), the inhibition in assay [1] came out at 81.8%. In assay [2], the half-maximal inhibitory concentration (IC50) was 23.2 µM.

On to `N#C/C(=C/c1ccc(N2CCCCCC2)o1)c1ccc(Cl)cc1`, for which the inhibition in assay [1] stood at 23.1%. Besides, the IC50 in assay [2] was > 50 µM (inactive).

Turning to `CNCc1ccccc1Sc1cc(O)ccc1O`, the inhibition in assay [1] came to 74.1%. Also, the 50% inhibitory concentration (IC50) in assay [2] is 38.5 µM.

For the compound `Cc1nc([N+](=O)[O-])c(Br)n1CC(=O)c1ccccc1`, the inhibition in assay [1] came to 82.1%. The IC50 in assay [2] was 1.96 µM.

On to `COc1ccc(/C=C/C(=O)c2c(O)c(OC)c3occc3c2OC)cc1`, for which the inhibition in assay [1] came to 30.2%. Also, the IC50 in assay [2] was > 50 µM (inactive).

Regarding `Clc1ccc(-c2csc3ncnc(Cl)c23)cc1`, the inhibition in assay [1] amounted to 72.9%. For the same compound, in assay [2], the IC50 was 40.5 µM.

With `CC(=O)/C=C/n1c(=S)oc2ccccc21`, in assay [1], the inhibition turned out to be 69.5%. The concentration for half-maximal inhibition (IC50) in assay [2] is 23.4 µM.

Regarding `CCCn1c(CC)nc([N+](=O)[O-])c1S(=O)(=O)c1ccccc1`, the inhibition in assay [1] was determined as 85.2%. Also, the half-inhibitory concentration (IC50) in assay [2] is 7.21 µM.

Consider `Cc1cc2oc(=O)cc(Cn3ncc(Cl)c(Cl)c3=O)c2cc1Cl`, for which the inhibition in assay [1] was 65.7%. Also, in assay [2], the IC50 was 20.1 µM.

For the compound `Cn1cc(Br)c(NC(=O)/C=C/C(=O)O)n1`, the inhibition in assay [1] was found to be 6.1%. Also, the IC50 in assay [2] was > 50 µM (inactive).

For the compound `CCOC(=O)C(=Cc1ccc(-n2cncn2)cc1)C(=O)OCC`, the inhibition in assay [1] came out at 89.8%. In addition, in assay [2], the IC50 is 33.7 µM.

With `COc1ccc([N+](=O)[O-])c(S(=O)(=O)c2ccc(Cl)cc2)n1`, the inhibition in assay [1] worked out at 34.4%. Besides, the IC50 in assay [2] was > 50 µM (inactive).

Take `COc1ccc(OC)c(CCNC(=O)Cn2sc3nc(C)cc(C)c3c2=O)c1`: the inhibition in assay [1] was 93.6%. The IC50 in assay [2] is 29.1 µM.

As to `O=C(NCc1cccnc1)/C(=C\c1ccc(-c2ccc(Cl)c(Cl)c2)o1)S(=O)(=O)c1ccccc1`, in assay [1], the inhibition turned out to be 9.8%. In assay [2], the IC50 was > 50 µM (inactive).

On to `CCC(=O)Nc1ccc(C(=O)Cn2ncc(Cl)c(Cl)c2=O)cc1`, for which the inhibition in assay [1] was found to be 72.4%. Further, the 50% inhibitory concentration (IC50) in assay [2] was 15.7 µM.

As usually defined, the inhibition is the change of the read-out against control, counted positive when it falls. The term IC50 denotes the concentration at which inhibition is half-maximal.
